1 compound from US20100203123A1, “METHODS FOR IMPROVING COGNITIVE FUNCTION AND DECREASING HEART RATE” (MARTEK BIOSCIENCES CORPORATION, priority 2009, published 2010) can be followed below.

Holding throughout (format): in vivo, human
Data set [1] relates to healthy elderly subjects with a mild memory complaint. Nature of the data set: CANTAB Stockings of Cambridge (SOC) test. As to conditions: about 900 mg/d, 24 weeks. The protocol: The effects of DHA (about 900 mg/day) versus placebo was tested to determine whether cognitive measures of memory, attention, and executive function were improved, utilizing the Cambridge Neuropsychological Test Automated Battery (CANTAB) cognitive battery, in healthy elderly subjects with a mild memory complaint. One objective of the study was to determine the effect of DHA administration versus placebo on improving cognitive functions (i.e., working memory, memory retention, attention, processing speed, and executive function) in healthy elderly with a subjective memory complaint. […]
The secondary efficacy endpoints included: • CANTAB tests of executive function and planning: Spatial Working Memory […] and Stockings of Cambridge (SOC) • CANTAB Verbal Recognition Memory test (VRM) • CANTAB Pattern Recognition test (PRM) • Visual acuity (measured by Snellen Eye chart; corrected vision) • Memory Functioning Questionnaire: Frequency of Forgetting-10 (Self-rating scale) • Activities of Daily Living (ADCS-ADL PI) scale (Self-rating) • Clinical measures of cognitive function and computerized assessments were administered by (CANTAB) certified examiners at each site blinded to the subject's treatment. • Description of CANTAB Battery of tests […]

The test system is the same in data set [2]. Put plainly: ADL (ADCS-ADL PI) and self-assessment of memory (Frequency of Forgetting-10). To be noted: 6 month study. An excerpt:
The secondary efficacy endpoints included: • CANTAB tests of executive function and planning: Spatial Working Memory […] and Stockings of Cambridge (SOC) • CANTAB Verbal Recognition Memory test (VRM) • CANTAB Pattern Recognition test (PRM) • Visual acuity (measured by Snellen Eye chart; corrected vision) • Memory Functioning Questionnaire: Frequency of Forgetting-10 (Self-rating scale) • Activities of Daily Living (ADCS-ADL PI) scale (Self-rating) • Clinical measures of cognitive function and computerized assessments were administered by (CANTAB) certified examiners at each site blinded to the subject's treatment. • Description of CANTAB Battery of tests
(§1) Other secondary measures included self-assessment tests of memory (Frequency of Forgetting-10 scale) (Zelinski, E. M. et al., Aging and Mental Health […]), Alzheimer's Disease Cooperative Study-Activities of Daily Living Prevention Instrument (ADCS-ADL PI scale) (Galasko, D., Alzheimer Dis. Assoc. Disord. 20:S152-69 (200)), Mini-Mental State Examination (MMSE) (Folstein et al., Pyschiatr. Res. 12:189-198 (1975) and the Geriatric Depression Scale (Yesavage, J., et al., J Psychiatr. Res. […]).

The test system is the same in data set [3]. Put plainly: Safety and tolerability of the DHA dose. The protocol:
The effects of DHA (about 900 mg/day) versus placebo was tested to determine whether cognitive measures of memory, attention, and executive function were improved, utilizing the Cambridge Neuropsychological Test Automated Battery (CANTAB) cognitive battery, in healthy elderly subjects with a mild memory complaint. One objective of the study was to determine the effect of DHA administration versus placebo on improving cognitive functions (i.e., working memory, memory retention, attention, processing speed, and executive function) in healthy elderly with a subjective memory complaint. Another objective of the study included determining the effects of DHA on visual acuity, levels of plasma phospholipids, and evaluating the safety and tolerability of the DHA dose administered.
Pre-baseline testing with the CANTAB occurred to serve as a training session and to familiarize the subject with the computer system. Morris R, et al., Computer Aided Assessment of Dementia: Comparative Studies of Neuropsychological Deficits in Alzheimer Type Dementia and Parkinson's Disease (1987). Seven (+/−2) days following this pre-baseline testing, baseline measurements were taken, including baseline laboratory measures, vital signs, and the CANTAB cognitive battery. […] Compliance was assessed by food frequency questionnaires, returned capsule counts, and by plasma DHA levels (taken at 24 weeks). […]

For data set [4] the test system is unchanged. Put plainly: Mini-Mental State Examination (MMSE). As to conditions: 6 month study, not different between groups.
Source text: During the Screening Period, subjects were selected on the basis of specific inclusion and exclusion criteria, including a screening Logical Memory sub-test of the Wechsler Memory Scale (WMS III). See e.g., Wechsler, D., Administration and Scoring Manual, 3rd ed. San Antonio, Tex.: Harcourt Brace & Company, 1997. In addition to the Logical Memory sub-test, the Mini-Mental State Examination (MMSE), Geriatric Depression scale, and a test of visual acuity and a DHA Food Frequency Questionnaire were administered to all subjects at screening. See e.g., Folstein et al., Pyschiatr. Res. 12:189-198 (1975); Yesavage J., et al., J Psychiatr. Res. […] (1982). Eligible subjects who meet the screening criteria were given a pre-baseline training session with the computerized cognitive battery, CANTAB.
as §1

As for `CC/C=C\C/C=C\C/C=C\C/C=C\C/C=C\C/C=C\CCC(=O)O` [DHA, (all-Z)-4,7,10,13,16,19-docosahexaenoic acid], the “changes in executive function (SOC)” value in data set [1] was “not found”. In data set [2], the ADL assessment entry was “unaffected by DHA supplementation” and the self-perceptive memory assessment result is reported as “unaffected by DHA supplementation”. Also, the “treatment-related SAEs” value in data set [3] (about 900 mg/d, 24 weeks) is “no treatment-related SAEs were reported”. In data set [3] (about 900 mg/day algal DHA, six months), the tolerability result is “well tolerated”. Also, the “MMSE, global cognitive function” value in data set [4] was “unchanged”.
